Results on one compound are retold here after US20260115181A1, “TRANSCRIPTION FACTOR PFAP2-O5 INHIBITOR FOR PLASMODIUM FALCIPARUM, PHARMACEUTICAL COMPOSITION, AND DRUG FOR TREATING MALARIA RESISTANT TO ARTEMISININ AND ANALOG THEREOF” (priority 2023, published 2026).

The structures appear in SMILES notation.

In one series the test system is PfAP2-O5. Description: Transcriptome sequencing (RNA-seq) analysis of effects on PfAP2-O5 target (invasion) gene expression. Type of series: cell-based, Plasmodium falciparum. To be noted: wild-type strain, 1 μM. As to the method: Wild-type and pfap2-o5 conditional knockdown Plasmodium falciparum strains were treated with the hexahydroquinoline derivative represented by formula (I), respectively. After strict synchronization of the Plasmodium falciparum strains, 1 μM hexahydroquinoline derivative was added one life cycle in advance. After one life cycle, the ring (10-15 hours), trophozoite (28-32 hours), and schizont (40-44 hours) stage cultures of the wild-type and pfap2-o5 conditional knockdown Plasmodium falciparum strains treated with the hexahydroquinoline derivative were collected. Total RNA was purified using the Direct-zol RNA kit, strand-specific RNA sequencing libraries were then prepared using KAPA mRNA beads, and the RNA was fragmented. The libraries were sequenced on the Illumina HiSeq X Ten system, and the differential gene expression between the two Plasmodium falciparum strains after inhibitor treatment was analyzed.

Series [1] is described as follows: Liver microsomal metabolism assay, mouse. Type of series: in vitro ADME. The protocol: (§1) In the microsomal metabolism assay, the inhibitor was incubated with liver microsomes from different species; the reaction was terminated at different time points; the remaining amount of the inhibitor in the samples at each time point was determined using LC-MS/MS. The percentage of parent drug remaining was calculated, and the hepatic intrinsic clearance CLint(liver) was finally obtained. Testosterone was used as a control in this study to verify the reliability of the experimental system. The detailed procedures were as follows: • The incubation system consisted of 0.1 M Tris-HCl buffer (pH 7.4), 1 mM MgCl2, 1 mM NADPH (Nicotinamide Adenine Dinucleotide Phosphate), and 0.5 mg/ml microsomes, and the final reaction volume was 200 μL. […] inhibitor and testosterone were pre-incubated with liver microsomes from different species in a 37° C. water bath for 5 minutes. 100 μL of NADPH was added to initiate the reaction. 400 μL of stop solution was added to terminate the reaction at time points of 0 minutes, 5 minutes, 15 minutes, 30 minutes, 45 minutes, and 60 minutes. 40 μL of internal standard was added, and the mixture was vortexed for 5 minutes and centrifuged at 20,000 g and 4° C. for 5 minutes. 100 μL of the supernatant was taken and diluted with 100 μL of water for injection and analysis. The retention time of the compound and the internal standard, chromatogram acquisition, and chromatogram integration were processed by Analyst 1.6.3 software. The compound was subjected to linear regression with a weighting coefficient of 1/X^2 to calculate the concentration at each time point. The natural logarithm of the percentage remaining at each time point was linearly regressed against the incubation time to calculate the in vitro elimination rate constant k. The half-life (T1/2) and hepatic intrinsic clearance CLint(liver) of the test article were calculated according to the following formula.
(§2) hepatic microsomal clearance CLint(mic)=0.693/half-life/mg microsomal protein per mL; hepatic intrinsic clearance CLint(liver)=hepatic microsomal clearance×mg microsomal protein/gram of liver×liver weight-to-body weight ratio. The liver weight-to-body weight ratios of mice, rats, and humans were 88, 40, and 20 g/kg, respectively; the average value of mg microsomal protein/gram of liver in different species was 45.

The nature of series [2]: Liver microsomal metabolism assay, rat. It counts as in vitro ADME. As to the method: as §1, §2
(Liver microsomes are a subcellular fraction often used to study metabolism.)

For the next series, the system named is Plasmodium falciparum. Description: In vitro growth inhibition of Plasmodium falciparum (3-day SYBR Green I cell growth assay). To be noted: wild-type Plasmodium falciparum, 72 hours, read-out: IC50 of the quantitative growth inhibitory effect on in vitro culture of Plasmodium falciparum. Type of series: cell-based. As to the method:
100 μL of complete culture medium was added to a 96-well plate. 200 μL of a compound stock solution with a concentration of 200 μM was added to the first well. Gradient dilution (11 concentration gradients) was performed at a 1/2 ratio according to the doubling gradient dilution. Dihydroartemisinin (DHA) was used as a positive control, complete culture medium was used as a negative control, and red blood cells without Plasmodium falciparum or compounds were used as a background control.
100 μL of wild-type Plasmodium falciparum culture (1% parasitemia, 4% hematocrit) was accurately added to each well, so that finally, the parasitemia in each well was 0.5%, and the hematocrit was 2%. The final concentration gradients of the compound were 100 μM, 50 μM, 25 μM, 12.5 μM, 6.25 μM, 3.125 μM, 1.5625 μM, 0.78125 μM, 0.390625 µM, 0.195313 μM, and 0.097656 μM. […] After the incubation was completed, a fluorescence intensity was recorded on a microplate reader with an excitation wavelength of 485 nm and an emission wavelength of 535 nm. The inhibition rate of the small molecule inhibitor on the growth of Plasmodium falciparum was calculated based on the fluorescence intensity.
[formula] • where Fltreated, Flbackground, and Flcontrol represent the fluorescence intensity values of the candidate small molecule drug group, the red blood cell control group, and the untreated control group, respectively. […]

The test system of series [3] is human liver cancer cell line HepG2. Description: Cytotoxicity, CCK8 assay, HepG2 cells. Type of series: cell-based. As to conditions: HepG2, 72 hours. The protocol: (§3) Mammalian 293T and HepG2 cells were cultured and passaged, trypsinized, and resuspended in DMEM. The cells were counted using a hemocytometer and diluted to 10^5 cells/mL. The cell suspension was evenly added to a 96-well plate, with 100 μL per well. After the cells were subjected to attachment culture in a 37° C. incubator (5% CO2) for 24 hours, the inhibitors of the corresponding concentrations were added. Gradient dilution (11 concentration gradients) was performed at a 1/2 ratio according to the doubling gradient dilution. Complete culture medium was used as a negative control, and DMEM was used as a background control. After the culture in a 37° C. incubator (5% CO2) for 72 hours, 10 μL of CCK8 reagent was added to each well. The plate was incubated in a 37° C. incubator (5% CO2) for 1 hour. The absorbance at a 450 nm wavelength was read by a microplate reader, and a survival rate was calculated based on the absorbance.
(§4) [formula] • where Abtreated, Abbackground, and Abcontrol represent the absorbance values of the small molecule drug group, the DMEM control group, and the untreated control group, respectively. The inhibition rate of the drug was calculated based on the survival rate at different concentrations, and the growth inhibition curve was summarized as inhibition rate-drug concentration. The IC50 was calculated using SPSS 18.0 software.
For orientation: Tetrazolium assays rely on reduction of a dye to a coloured formazan, in cell work by metabolically active cells.

Series [4] deals with human renal epithelial cell line 293T. Description: Cytotoxicity, CCK8 assay, 293T cells. It counts as cell-based. To be noted: 72 hours. The protocol: as §3, §4
The nature of series [5]: Liver microsomal metabolism assay, human. It counts as in vitro ADME. The protocol: as §1, §2

Turning to `CC1=C(C(=O)Nc2cccc(C(F)(F)F)c2)C(c2cccc([N+](=O)[O-])c2)C2=C(CC(C)(C)CC2=O)N1` (centres unmarked) [hexahydroquinoline derivative], the “expression of PfAP2-O5 target genes after treatment” value in the series on PfAP2-O5 is given as “downregulated”. In addition, the “decrease of expression levels of merozoite surface structural protein family (invasion) genes (mRNA level)” value in the series with PfAP2-O5 (added one life cycle in advance) is on record as “more than 1.5 fold”. Further, the CLint scaled in series [1] (liver microsomes, pH 7.4, mouse, hepatic intrinsic clearance CLint(liver), scaled with 45 mg protein/g liver, 88 g/kg) is 176 mL/min/kg; in series [2] (liver microsomes, pH 7.4, rat, hepatic intrinsic clearance CLint(liver), scaled with 45 mg protein/g liver, 40 g/kg), 178 mL/min/kg; in series [5] (liver microsomes, pH 7.4, human, hepatic intrinsic clearance CLint(liver), scaled with 45 mg protein/g liver, 20 g/kg) it was 22.3 mL/min/kg. For the same compound, the values for the clearance classification entry in series [1] (mouse liver microsomes), in series [2] (rat liver microsomes) and in series [5] (human liver microsomes) were “moderate-clearance compound”, “high-clearance compound” and “moderate-clearance compound”, respectively. The k in series [1] (mouse liver microsomes 0.5 mg/ml, 1 mM NADPH, 1 M inhibitor, 37° C.) was determined as 0.0222 min⁻¹; in series [2] (rat liver microsomes 0.5 mg/ml, 1 mM NADPH, 1 M inhibitor, 37° C.), 0.0493 min⁻¹; in series [5] (human liver microsomes 0.5 mg/ml, 1 mM NADPH, 1 M inhibitor, 37° C.), 0.0124 min⁻¹. Further, the half-life stood at 31.2 min in series [1] (pH 7.4, mouse liver microsomes 0.5 mg/ml, 1 mM NADPH, 37° C.); 14.1 min in series [2] (pH 7.4, rat liver microsomes 0.5 mg/ml, 1 mM NADPH, 37° C.); 55.9 min in series [5] (pH 7.4, human liver microsomes 0.5 mg/ml, 1 mM NADPH, 37° C.). The half-maximal inhibitory concentration (IC50) in the series on Plasmodium falciparum turned out to be 2160 nM. Moreover, the “cytotoxicity to mammalian cells” value in series [3] and in series [4] was “low cytotoxicity” in each case.

As usually defined, the CLint scaled is a measure of how fast metabolising enzymes remove a compound, apart from limits set by blood flow. Read a low CLint scaled as greater metabolic stability. The term half-life denotes how long it takes for the measured level to halve. Higher therefore signals slow decline. For orientation: IC50 means the concentration at which inhibition is half-maximal.
